Experimental data published in article PMC11012124, “Synthesis of Novel Triazine-Based Chalcones and 8,9-dihydro-7H-pyrimido[4,5-b][1,4]diazepines as Potential Leads in the Search of Anticancer, Antibacterial and Antifungal Agents” (International Journal of Molecular Sciences, 2024).
Converted amounts (≈) assume the structure as drawn.

Columns and labels:
[1] = system: U251; test: cells; settings: Homo sapiens, U-251, 48 h
[2] = system: NCI-H23; test: cells; settings: Homo sapiens, NCI-H23, 48 h
[3] = system: ACHN; test: cells; settings: Homo sapiens, 48 h
[4] = system: MOLT-4; test: cells; settings: Homo sapiens, MOLT-4, 48 h
[5] = system: SR; test: cells; settings: Homo sapiens, 48 h
[6] = system: MDA-MB-435; test: cells; settings: Homo sapiens, MDA-MB-435, 48 h
[7] = system: SW-620; test: cells; settings: Homo sapiens, SW-620, 48 h
[8] = system: IGROV1; test: cells; settings: Homo sapiens, IGROV-1, 48 h, read-out: LC50
[9] = system: BT-549; test: cells; settings: Homo sapiens, BT-549, 48 h
[10] = system: T-47D; test: cells; settings: Homo sapiens, T47D, 48 h
[11] = system: A549/ATCC; test: cells; settings: Homo sapiens, A549, 48 h
[12] = system: PC-3; test: cells; settings: Homo sapiens, PC-3, 48 h
[13] = system: SK-MEL-2; test: cells; settings: Homo sapiens, SK-MEL-2, 48 h
[14] = system: Microsporum gypseum (CCC 115); test: Antifungal broth microdilution (CLSI); format: cell-based; settings: Nannizzia gypsea; Mg: Microsporum gypseum
How it was run: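 Broth microdilution followed CLSI M27-A3 for yeasts and the filamentous-fungi reference method, in 200 μL final volume with DMSO-matched growth controls. Plates were incubated in the dark and humid at 30 °C for a time suited to each fungus; testing was done in triplicate.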

[15] = system: N. gonorrhoeae ATCC 49226; test: MIC on GC agar plates; format: cell-based, Neisseria gonorrhoeae; settings: Neisseria gonorrhoeae, ATCC49226, read-out: MIC
How it was run: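 Agar dilution was used: GC agar with 1% IsoVitaleX containing increasing compound concentrations was inoculated with 1 × 10^4 CFU. The MIC was taken as the lowest concentration inhibiting growth, with growth confirmed by oxidase test, in duplicate across at least two independent experiments.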

[16] = system: HOP-92; test: cells; settings: Homo sapiens, HOP-92, 48 h
[17] = system: LOX IMVI; test: cells; settings: Homo sapiens, 48 h
[18] = system: NCI-H226; test: cells; settings: Homo sapiens, NCI-H226, 48 h
[19] = system: MDA-MB-231/ATCC; test: cells; settings: Homo sapiens, MDA-MB-231, 48 h
[20] = system: NCI-H522; test: cells; settings: Homo sapiens, NCI-H522, 48 h
[21] = system: 60 cancer cell lines; test: NCI-60 one-dose screen (10 μM); format: cell-based; settings: Homo sapiens; one dose of 10 μM, mean over 60 cancer cell lines; read-out: Mean Growth Percent (MGP)
From the text: Additionally, the mean of the growth percentages (MGP) of each compound against all the 60 cancer cell lines is also reported, which is used as one of the selection criteria to continue with tests at five concentration doses.

[22] = system: HCT-116; test: cells; settings: Homo sapiens, HCT-116, 48 h
[23] = system: M. tuberculosis ATCC 27294; test: Antitubercular broth microdilution MIC; format: cell-based; settings: Mycobacterium tuberculosis; M. tuberculosis ATCC 27294 (H37Rv); read-out: Minimum inhibitory concentration (MIC)
[24] = system: SNB-19; test: cells; settings: Homo sapiens, SNB-19, 48 h
[25] = system: DU-145; test: cells; settings: Homo sapiens, DU-145, 48 h
[26] = system: RPMI-8226; test: cells; settings: Homo sapiens, RPMI-8226, 48 h

`COc1cc(C2CC(c3ccc(Cl)cc3)=Nc3c(N)nc(N)nc3N2)ccc1Oc1nc(Nc2ccc(F)cc2)nc(N(C)C)n1` (centres unmarked) [29e] was tested, and the GI50 ([1]; U251, 48 h) was greater than 100 µM, the CC50 ([1]; read-out: LC50) was greater than 100 µM and the GI50 [2] was greater than 100 µM. For the same molecule, the CC50 ([2]; read-out: LC50) was greater than 100 µM, the GI50 [3] was greater than 100 µM and the CC50 ([3]; read-out: LC50) was greater than 100 µM. It also gave a GI50 [4] of 8.54 µM, a CC50 ([4]; read-out: LC50) greater than 100 µM and a GI50 [5] of 3.41 µM. The CC50 ([5]; read-out: LC50) was greater than 100 µM, the GI50 [6] was greater than 100 µM and the CC50 ([6]; read-out: LC50) was greater than 100 µM. The GI50 [7] was greater than 100 µM, the CC50 ([7]; read-out: LC50) was greater than 100 µM and the CC50 [8] was greater than 100 µM. For the same molecule, the GI50 [9] was 35.5 µM, the CC50 ([9]; read-out: LC50) was greater than 100 µM and the GI50 [10] was greater than 100 µM. For the same molecule, the CC50 ([10]; read-out: LC50) was greater than 100 µM, the GI50 [11] was greater than 100 µM and the CC50 ([11]; read-out: LC50) was greater than 100 µM. It also gave a GI50 [12] of 6.16 µM, a CC50 ([12]; read-out: LC50) greater than 100 µM and a GI50 [13] greater than 100 µM. The CC50 ([13]; read-out: LC50) was greater than 100 µM, the MIC [14] was greater than 250 µg/mL and the MIC [15] was no less than 500 µg/mL. It also gave a GI50 [16] of 3 µM, a CC50 ([16]; read-out: LC50) greater than 100 µM and a GI50 [17] of 47.8 µM. The CC50 ([17]; read-out: LC50, LOX IMVI, 48 h) was greater than 100 µM, the GI50 [18] was greater than 100 µM and the CC50 ([18]; read-out: LC50) was greater than 100 µM. It also gave a GI50 [19] of 6.73 µM, a CC50 ([19]; read-out: LC50) greater than 100 µM and a GI50 [20] greater than 100 µM. For the same molecule, the CC50 ([20]; read-out: LC50) was greater than 100 µM, the activity at 10 µM [21] was 40.9% and the GI50 [22] was 12.5 µM. For the same molecule, the CC50 ([22]; read-out: LC50) was greater than 100 µM, the MIC [23] was 1.2 µg/mL (≈ 1.87 µM) and the GI50 [24] was greater than 100 µM. The CC50 ([24]; read-out: LC50) was greater than 100 µM, the GI50 [25] was greater than 100 µM and the CC50 ([25]; read-out: LC50) was greater than 100 µM. It also gave a GI50 [26] of 26.4 µM and a CC50 ([26]; read-out: LC50) greater than 100 µM.
